A short description of series [1]: cells. Conditions: Homo sapiens, UCH1, 72 h. Format: functional, cell-based.
Description: Antiproliferative activity against human UCH1 cells measured after 72 hrs by alamar blue assay
The target of series [2] is T1, Epidermal growth factor receptor (Homo sapiens, UniProt P00533). Format: cell-based.
Description: Inhibition of EGFR in human A431 cells assessed as reduction in EGF-stimulated EGFR autophosphorylation preincuabted for 90 mins followed by EGF-stimulation by sandwich-ELISA
In series [3] the target is T2, Cyclin-G-associated kinase (Homo sapiens, UniProt O14976).
T2 sequence (O14976 whole entry): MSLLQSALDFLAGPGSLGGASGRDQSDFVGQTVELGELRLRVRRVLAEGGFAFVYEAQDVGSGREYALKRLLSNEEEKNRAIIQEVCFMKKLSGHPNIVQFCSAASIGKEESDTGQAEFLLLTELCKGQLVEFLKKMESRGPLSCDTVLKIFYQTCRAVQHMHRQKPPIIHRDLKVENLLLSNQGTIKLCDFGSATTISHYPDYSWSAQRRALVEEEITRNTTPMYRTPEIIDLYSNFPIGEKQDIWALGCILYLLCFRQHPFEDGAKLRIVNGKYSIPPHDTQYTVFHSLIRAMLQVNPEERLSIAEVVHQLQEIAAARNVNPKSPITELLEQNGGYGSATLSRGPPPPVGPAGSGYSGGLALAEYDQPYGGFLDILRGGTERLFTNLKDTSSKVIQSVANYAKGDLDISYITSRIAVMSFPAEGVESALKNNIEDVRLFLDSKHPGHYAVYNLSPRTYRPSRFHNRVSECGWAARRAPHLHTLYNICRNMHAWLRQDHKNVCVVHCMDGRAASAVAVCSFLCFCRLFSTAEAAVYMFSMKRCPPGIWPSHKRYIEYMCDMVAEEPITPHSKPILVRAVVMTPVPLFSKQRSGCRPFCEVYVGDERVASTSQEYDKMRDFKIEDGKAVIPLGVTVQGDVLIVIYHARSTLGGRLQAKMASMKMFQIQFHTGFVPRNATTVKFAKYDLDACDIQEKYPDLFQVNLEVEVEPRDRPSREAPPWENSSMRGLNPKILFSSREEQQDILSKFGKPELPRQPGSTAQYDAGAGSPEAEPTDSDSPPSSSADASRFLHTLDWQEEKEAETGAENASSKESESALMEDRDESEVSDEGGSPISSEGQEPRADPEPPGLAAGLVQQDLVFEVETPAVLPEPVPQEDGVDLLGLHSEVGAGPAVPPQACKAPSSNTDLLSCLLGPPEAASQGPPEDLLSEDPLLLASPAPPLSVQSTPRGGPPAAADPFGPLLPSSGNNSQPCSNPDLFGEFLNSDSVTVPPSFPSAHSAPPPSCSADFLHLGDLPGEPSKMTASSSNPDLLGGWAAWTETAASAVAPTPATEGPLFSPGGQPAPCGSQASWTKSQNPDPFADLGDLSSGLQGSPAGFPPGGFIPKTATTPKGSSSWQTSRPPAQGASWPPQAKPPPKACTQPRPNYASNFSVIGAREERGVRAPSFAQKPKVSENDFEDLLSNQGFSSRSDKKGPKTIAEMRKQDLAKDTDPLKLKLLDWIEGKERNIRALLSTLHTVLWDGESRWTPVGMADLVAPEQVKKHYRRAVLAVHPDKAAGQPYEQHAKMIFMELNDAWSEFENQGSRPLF
The series can be described thus: Inhibition of tracer 5 binding to human N-terminal nano luciferase-fused GAK expressed in HEK293 cells measured after 2 hrs by nanoBRET assay. The note with it: hek293. Format: cell-based. (Bioluminescence resonance energy transfer reports proximity on the nanometre scale.)

A short description of series [4]: cells. Format: ADME, cell-based. Conditions: Homo sapiens, WS1, 72 h.
Description: Cytotoxicity against human WS1 cells measured after 72 hrs by alamar blue assay
Series [5] in a line: cells. Format: functional, cell-based. Conditions: Homo sapiens, 72 h.
Description: Antiproliferative activity against human UCH7 cells measured after 72 hrs by alamar blue assay
The nature of series [6]: Effect on total EGFR expression in human UCH1 cells at 1 to 10 uM measured after 4 hrs by Western blot analysis. Type of series: ADME, cell-based. Background: In western blotting, separated proteins are transferred to a membrane and probed.
Series [7] has as its target T1, Epidermal growth factor receptor. The series can be described thus: Inhibition of EGFR in human UCH1 cells assessed as reduction in EGF-induced EGFR phosphorylation at Y1068 residue at 1 uM preincubated for 4 hrs followed by EGF--stimulation and measured after 15 mins by Western blot analysis relative to control. Type of series: cell-based.
Series [8] addresses Receptor-interacting serine/threonine-protein kinase 2 (Homo sapiens) (UniProt O43353). The series can be described thus: Binding affinity to RIPK2 in human SUM159 cell lysates by multiplexed inhibitor bead profiling-based LC-MS/MS analysis. Conditions: Lysate. Type of series: subcellular.
The target of series [9] is T3, Serine/threonine-protein kinase Nek1 (Homo sapiens) (UniProt Q96PY6).
T3 sequence (whole entry): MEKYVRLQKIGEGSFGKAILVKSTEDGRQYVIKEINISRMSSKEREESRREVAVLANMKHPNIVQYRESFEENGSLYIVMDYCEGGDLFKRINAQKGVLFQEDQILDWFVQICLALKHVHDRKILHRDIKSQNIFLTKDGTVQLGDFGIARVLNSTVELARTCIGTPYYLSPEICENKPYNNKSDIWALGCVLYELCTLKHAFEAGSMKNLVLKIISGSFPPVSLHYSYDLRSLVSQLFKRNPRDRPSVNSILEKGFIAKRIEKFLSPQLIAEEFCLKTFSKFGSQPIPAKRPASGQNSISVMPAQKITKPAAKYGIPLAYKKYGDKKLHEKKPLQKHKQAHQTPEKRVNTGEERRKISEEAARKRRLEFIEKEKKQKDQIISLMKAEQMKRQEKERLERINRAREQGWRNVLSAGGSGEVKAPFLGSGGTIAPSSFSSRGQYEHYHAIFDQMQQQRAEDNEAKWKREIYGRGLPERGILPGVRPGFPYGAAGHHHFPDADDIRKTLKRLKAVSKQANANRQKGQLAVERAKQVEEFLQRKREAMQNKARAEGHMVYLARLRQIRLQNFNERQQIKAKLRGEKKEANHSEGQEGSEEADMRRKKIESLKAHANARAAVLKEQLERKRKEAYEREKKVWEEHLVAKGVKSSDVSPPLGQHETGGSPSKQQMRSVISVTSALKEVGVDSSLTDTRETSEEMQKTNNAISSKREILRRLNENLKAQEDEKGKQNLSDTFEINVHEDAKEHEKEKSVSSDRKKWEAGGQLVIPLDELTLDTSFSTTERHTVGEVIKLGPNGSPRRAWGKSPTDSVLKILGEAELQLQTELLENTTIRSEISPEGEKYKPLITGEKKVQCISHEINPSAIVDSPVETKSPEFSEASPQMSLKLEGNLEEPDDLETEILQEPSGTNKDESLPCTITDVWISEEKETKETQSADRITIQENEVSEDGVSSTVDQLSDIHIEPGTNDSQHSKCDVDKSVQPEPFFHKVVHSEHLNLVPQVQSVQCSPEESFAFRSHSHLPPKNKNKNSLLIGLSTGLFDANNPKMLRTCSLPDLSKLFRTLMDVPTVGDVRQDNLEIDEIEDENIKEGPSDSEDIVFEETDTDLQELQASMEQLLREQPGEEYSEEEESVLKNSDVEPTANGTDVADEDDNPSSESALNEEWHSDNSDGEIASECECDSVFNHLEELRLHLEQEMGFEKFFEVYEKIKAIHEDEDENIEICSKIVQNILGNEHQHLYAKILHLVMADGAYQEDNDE
The series can be described thus: Binding affinity to NEK1 in human SUM159 cell lysates by multiplexed inhibitor bead profiling-based LC-MS/MS analysis. Type of series: subcellular. The note with it: Lysate.

Active and inactive are the calls of the source. No cut-off for these calls is given here.

Usually IC50 stands for the concentration at which inhibition is half-maximal. A low value points to inhibition by little substance. One may read the inhibition as how much of the control response was suppressed.

T1 sequence (P00533 whole entry): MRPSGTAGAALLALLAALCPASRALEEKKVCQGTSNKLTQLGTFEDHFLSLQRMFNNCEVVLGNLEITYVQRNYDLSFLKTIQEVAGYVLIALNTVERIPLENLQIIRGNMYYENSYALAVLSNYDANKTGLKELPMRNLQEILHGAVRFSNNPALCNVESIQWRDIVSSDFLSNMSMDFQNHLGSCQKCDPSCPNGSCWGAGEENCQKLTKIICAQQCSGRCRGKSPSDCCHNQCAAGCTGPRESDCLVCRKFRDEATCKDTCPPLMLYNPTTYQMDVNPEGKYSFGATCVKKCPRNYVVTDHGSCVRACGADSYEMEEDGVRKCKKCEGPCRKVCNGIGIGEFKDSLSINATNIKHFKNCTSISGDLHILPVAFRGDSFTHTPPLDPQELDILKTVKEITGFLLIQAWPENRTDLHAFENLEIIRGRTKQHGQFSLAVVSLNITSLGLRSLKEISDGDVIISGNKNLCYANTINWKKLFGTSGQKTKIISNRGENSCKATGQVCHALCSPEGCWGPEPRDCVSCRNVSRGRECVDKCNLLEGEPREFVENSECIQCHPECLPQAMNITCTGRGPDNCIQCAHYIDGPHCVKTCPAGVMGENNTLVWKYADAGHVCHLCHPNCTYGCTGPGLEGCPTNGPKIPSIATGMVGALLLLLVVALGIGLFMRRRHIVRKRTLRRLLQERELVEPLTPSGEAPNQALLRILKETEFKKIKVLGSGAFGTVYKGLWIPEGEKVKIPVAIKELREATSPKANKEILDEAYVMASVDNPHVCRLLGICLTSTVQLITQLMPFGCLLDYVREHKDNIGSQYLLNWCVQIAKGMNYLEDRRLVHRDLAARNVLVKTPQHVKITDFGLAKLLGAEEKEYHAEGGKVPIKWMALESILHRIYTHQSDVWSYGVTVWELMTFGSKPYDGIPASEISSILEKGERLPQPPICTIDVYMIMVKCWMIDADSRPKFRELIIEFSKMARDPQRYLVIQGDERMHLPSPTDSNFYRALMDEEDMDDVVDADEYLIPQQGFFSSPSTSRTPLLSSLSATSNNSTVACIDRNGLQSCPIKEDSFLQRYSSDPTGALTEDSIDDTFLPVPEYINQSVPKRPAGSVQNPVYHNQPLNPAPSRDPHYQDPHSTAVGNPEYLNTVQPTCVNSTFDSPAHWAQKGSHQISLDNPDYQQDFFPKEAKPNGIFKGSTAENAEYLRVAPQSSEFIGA
Chain of Receptor-interacting serine/threonine-protein kinase 2 (Homo sapiens) (O43353 whole entry): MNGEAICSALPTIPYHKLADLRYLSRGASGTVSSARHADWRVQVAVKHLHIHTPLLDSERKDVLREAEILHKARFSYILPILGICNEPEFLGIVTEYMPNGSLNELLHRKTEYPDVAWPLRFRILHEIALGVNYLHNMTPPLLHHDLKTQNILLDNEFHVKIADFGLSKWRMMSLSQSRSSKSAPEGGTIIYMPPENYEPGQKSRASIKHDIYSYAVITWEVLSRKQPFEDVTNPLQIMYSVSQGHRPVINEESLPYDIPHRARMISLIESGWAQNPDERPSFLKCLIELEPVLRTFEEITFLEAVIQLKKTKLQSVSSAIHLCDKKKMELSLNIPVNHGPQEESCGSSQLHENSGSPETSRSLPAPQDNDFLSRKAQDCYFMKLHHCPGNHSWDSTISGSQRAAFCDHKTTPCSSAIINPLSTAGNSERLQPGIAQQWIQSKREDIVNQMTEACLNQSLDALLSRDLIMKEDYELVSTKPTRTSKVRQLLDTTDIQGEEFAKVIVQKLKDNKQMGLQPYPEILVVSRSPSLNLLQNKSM

Take `C#Cc1cccc(Nc2ccnc3cc(OC)c(OC)cc23)c1`: the IC50 in “cells [1]” came out at 2100 nM; in series [2], 42 nM; in [3], 500 nM; in “cells [4]” it was 7700 nM; in “cells [5]”, 20000 nM. Also, in [6], the Activity entry was “Non-Toxic”. The inhibition in series [7] worked out at 0%. Besides, the outcome in series [8] and in series [9] was Active.
